# Measured values taken from US20250144067A1, “PERSONALIZED STARVATION THERAPY FOR CANCER” (Faeth Therapeutics, Inc., priority 2021, published 2025).
# Counter-ions that a name gives are not always drawn. Like-named read-outs stand apart in the source and are kept apart here. Peptide text beside a SMILES is read from it.
# Assays:
# [1] = tested on: NCI-H292 lung cancer cells; test: FDA drug screening, complete media vs cholesterol-free media with simvastatin (TABLE 2); type: cell-based, human
# [2] = tested on: NCI-H292 lung cancer cells; test: FDA drug screening, complete media vs cholesterol-free media without statin (TABLE 1); type: cell-based, human
# [3] = NCI-H292 cells, FDA drug library screen, cholesterol-free media with simvastatin 0.04 μM
# [4] = NCI-H292 cells, FDA drug library screen, complete media
# [5] = complete media vs cholesterol-free media + simvastatin (0.04 μM), […]
# [6] = Complete minus Cholesterol-free, […]
# [7] = NCI-H292 cells, cholesterol-free media without statin
# [8] = NCI-H292 cells, FDA library drug in cholesterol-free media with simvastatin 0.04 μM
# [9] = NCI-H292 cells, FDA library drug in complete media
# [10] = NCI-H292 cells, cholesterol-free media without statin, FDA drug library screen
# [11] = NCI-H292 cells, complete media, FDA drug library screen
# [12] = complete media minus cholesterol-free media + simvastatin, […]
# [13] = NCI-H292 cells, FDA drug library screen, cholesterol-free media without statin
# [14] = complete media minus cholesterol-free media + simvastatin, >0 enhanced anti-cancer activity, about 0 neutral, <0 antagonist
# [15] = Complete minus Cholesterol-free, greater than 0 enhanced anti-cancer activity, about 0 neutral, below 0 antagonists
# [16] = NCI-H292 cells in cholesterol-free media without statin
# [17] = NCI-H292 cells in complete media
# [18] = NCI-H292 cells, cholesterol-free media with simvastatin 0.04 μM, FDA drug library screen (TABLE 2)
# [19] = NCI-H292 cells, complete media, FDA drug library screen (TABLE 2)
# [20] = complete media minus cholesterol-free media + simvastatin (0.04 μM), >0 enhanced anti-cancer activity, about 0 neutral, <0 antagonist
# [21] = Complete minus Cholesterol-free, >0 enhanced anti-cancer activity, about 0 neutral, <0 antagonist
# [22] = NCI-H292 cells, cholesterol-free media with simvastatin 0.04 μM, cell growth value in FDA drug screen
# [23] = NCI-H292 cells, complete media, cell growth value in FDA drug screen
# [24] = complete vs cholesterol-free media, >0 enhanced anti-cancer activity, about 0 neutral, <0 antagonist
# [25] = complete vs cholesterol-free media, greater than 0 enhanced anti-cancer activity, about 0 neutral, below 0 antagonists
# [26] = NCI-H292 cells, drug in cholesterol-free media with simvastatin 0.04 μM
# [27] = NCI-H292 cells, drug in complete media
# [28] = complete media vs cholesterol-free media + simvastatin (0.04 μM), >0 enhanced anti-cancer activity, about 0 neutral, <0 antagonist
# [29] = Complete minus Cholesterol-free, greater than 0 enhanced anti-cancer activity, about 0 neutral, below 0 antagonist
compound,measurement,setting,value
Indacaterol (maleate),Cholesterol-free media + simvastatin (0.04 μM),[1]; [3],1.032
same,Complete Media,[1]; [4],0.9157
same,Difference,[1]; [5],−0.12
same,Difference,[2]; [6],−0.20
same,Cholesterol-free,[2]; [7],1.314
same,Complete,"[2]; NCI-H292 cells, complete media",1.116
Gilteritinib hemifumarate,Cholesterol-free media + simvastatin (0.04 μM),[1]; [8],0.9393
same,Complete Media,[1]; [9],0.4057
same,Difference,[1]; [5],−0.53
same,Cholesterol-free,[2]; [10],0.3721
same,Complete,[2]; [11],0.7198
same,Difference,"[2]; complete vs cholesterol-free media, […]",0.35
C[C@@H]1[C@@H](c2ccc(Cl)cc2)SC(=O)N1C(=O)NC1CCCCC1 [Hexythiazox],Cholesterol-free media + simvastatin (0.04 μM),"[1]; NCI-H292 cells, cholesterol-free media with simvastatin 0.04 μM, […]",0.8643
same,Complete Media,"[1]; NCI-H292 cells, complete media, […]",0.9913
same,Difference,[1]; [12],0.13
same,Difference,[2]; [6],−0.16
same,Cholesterol-free,[2]; [13],1.557
same,Complete,[2]; [4],1.396
COC(=O)CCC(=O)CN [Methyl aminolevulinate (hydrochloride)],Cholesterol-free media + simvastatin (0.04 μM),[1]; [3],1.272
same,Complete Media,[1]; [4],1.627
same,Difference,[1]; [14],0.35
same,Difference,[2]; [15],−0.59
same,Cholesterol-free,[2]; [16],1.473
same,Complete,[2]; [17],0.886
C=C[C@@H]1C[C@]1(NC(=O)[C@@H]1C[C@@H]2CN1C(=O)[C@H](C(C)(C)C)NC(=O)O[C@@H]1C[C@H]1CCCCCc1nc3ccc(OC)cc3nc1O2)C(=O)[N-]S(=O)(=O)C1CC1.[K+] [Grazoprevir potassium salt],Cholesterol-free media + simvastatin (0.04 μM),[1]; [3],1.46
same,Complete Media,[1]; [4],1.827
same,Difference,[1]; [12],0.37
same,Difference,[2]; [6],−0.06
same,Cholesterol-free,[2]; [10],1.089
same,Complete,[2]; [11],1.03
CC[C@@]1(O)C(=O)OCc2c1cc1n(c2=O)Cc2c-1nc1ccccc1c2CCNC(C)C [Belotecan (hydrochloride)],Cholesterol-free media + simvastatin (0.04 μM),[1]; [18],−0.0005237
same,Complete Media,[1]; [19],0.007701
same,Difference,[1]; [20],0.01
same,Difference,[2]; [21],0.00
same,Cholesterol-free,[2]; [10],0.00566
same,Complete,[2]; [11],0.01027
CCN1CCCC1CNC(=O)c1cc(S(=O)(=O)CC)c(N)cc1OC (stereo not drawn) [Amisulpride],Cholesterol-free media + simvastatin (0.04 μM),[1]; [22],0.8703
same,Complete Media,[1]; [23],0.9333
same,Difference,[1]; [14],0.06
same,Cholesterol-free,[2]; [10],1.175
same,Complete,[2]; [11],1.349
same,Difference,[2]; [24],0.17
c1ccc2[nH]c(-c3cscn3)nc2c1 [Thiabendazole],Cholesterol-free media + simvastatin (0.04 μM),[1]; [3],0.9537
same,Complete Media,[1]; [4],1.187
same,Difference,[1]; [14],0.23
same,Cholesterol-free,[2]; [10],0.802
same,Complete,[2]; [11],1.484
same,Difference,[2]; [24],0.68
O=c1[nH]c(=O)n([C@H]2C[C@H](O)[C@@H](CO)O2)cc1/C=C/Br [Brivudine],Cholesterol-free media + simvastatin (0.04 μM),[1]; [22],1.157
same,Complete Media,[1]; [23],1.26
same,Difference,[1]; [14],0.10
same,Cholesterol-free,[2]; [7],1.108
same,Complete,"[2]; NCI-H292 cells, complete media",0.7267
same,Difference,[2]; [25],−0.38
Adenine (hemisulfate),Cholesterol-free media + simvastatin (0.04 μM),[1],1.503
same,Complete Media,[1],1.604
same,Difference,[1],0.10
same,Cholesterol-free,[2],1.657
same,Complete,[2],0.9172
same,Difference,[2],−0.74
[H]/N=C(/N)NS(=O)(=O)c1ccc(N)cc1 [Sulfaguanidine],Cholesterol-free media + simvastatin (0.04 μM),[1]; [26],1.092
same,Complete Media,[1]; [27],0.8866
same,Difference,[1]; [28],−0.21
same,Difference,[2]; [21],−0.24
same,Cholesterol-free,[2]; [7],1.183
same,Complete,"[2]; NCI-H292 cells, complete media",0.939
Ketotifen (fumarate),Cholesterol-free media + simvastatin (0.04 μM),[1]; [8],1.876
same,Complete Media,[1]; [9],1.552
same,Difference,[1]; [5],−0.32
same,Difference,[2]; [6],−0.71
same,Cholesterol-free,[2]; [16],1.545
same,Complete,[2]; [17],0.8394
Cc1cccc(Nc2ccccc2C(=O)O)c1C [Mefenamic acid],Cholesterol-free media + simvastatin (0.04 μM),[1]; [3],1.014
same,Complete Media,[1]; [4],0.8951
same,Difference,[1]; [28],−0.12
same,Difference,[2]; [15],−0.58
same,Cholesterol-free,[2]; [16],2.136
same,Complete,[2]; [17],1.551
COc1cc2c(cc1OC)[C@@H]1Cc3ccc(OC)c(OC)c3CN1CC2 [Tetrahydropalmatine],Cholesterol-free media + simvastatin (0.04 μM),[1]; [26],0.9937
same,Complete Media,[1]; [27],0.7686
same,Difference,[1]; [28],−0.23
same,Difference,[2]; [29],−0.19
same,Cholesterol-free,[2]; [13],1.084
same,Complete,[2]; [4],0.8984
CC(N)CCCC(C)(C)O (stereo not drawn) [Heptaminol (hydrochloride)],Cholesterol-free media + simvastatin (0.04 μM),[1]; [26],1.069
same,Complete Media,[1]; [27],0.8484
same,Difference,[1]; [28],−0.22
same,Difference,[2]; [21],−0.27
same,Cholesterol-free,[2]; [7],0.8584
same,Complete,"[2]; NCI-H292 cells, complete media",0.5894
CCCOc1ccc(C(=O)OCCN(CC)CC)cc1N [Proparacaine (Hydrochloride)],Cholesterol-free media + simvastatin (0.04 μM),[1]; [3],0.544
same,Complete Media,[1]; [4],1.021
same,Difference,[1]; [14],0.48
same,Cholesterol-free,[2]; [7],1.255
same,Complete,"[2]; NCI-H292 cells, complete media",0.8769
same,Difference,[2]; [25],−0.38
CCCN1C[C@H](C)[C@@H](O)[C@](C)(O)[C@@H](CC)OC(=O)[C@H](C)[C@@H](O[C@H]2C[C@@](C)(OC)[C@@H](O)[C@H](C)O2)[C@H](C)[C@@H](O[C@@H]2O[C@H](C)C[C@H](N(C)C)[C@H]2O)[C@](C)(O)C[C@H]1C [Gamithromycin],Cholesterol-free media + simvastatin (0.04 μM),[1]; [3],1.403
same,Complete Media,[1]; [4],1.765
same,Difference,[1]; [14],0.36
same,Cholesterol-free,[2]; [7],1.35
same,Complete,"[2]; NCI-H292 cells, complete media",0.886
same,Difference,[2]; [25],−0.46
CCCCc1oc2ccc(NS(C)(=O)=O)cc2c1C(=O)c1ccc(OCCCN(CCCC)CCCC)cc1 [Dronedarone],Cholesterol-free media + simvastatin (0.04 μM),[1]; [3],0.4908
same,Complete Media,[1]; [4],0.8741
same,Difference,[1]; [14],0.38
same,Difference,[2]; [29],−0.14
same,Cholesterol-free,[2]; [13],1.006
same,Complete,[2]; [4],0.8674
C#C[C@]1(O)CC[C@H]2[C@@H]3CCC4=CC(=O)CC[C@@H]4[C@H]3CC[C@@]21C [Norethindrone],Cholesterol-free media + simvastatin (0.04 μM),[1]; [3],0.8746
same,Complete Media,[1]; [4],1.458
same,Difference,[1]; [14],0.58
same,Cholesterol-free,[2]; [10],1.186
same,Complete,[2]; [11],1.412
same,Difference,[2]; [24],0.23
C=C1C[C@@H]2[C@H](CC[C@]3(C)C(=O)CC[C@@H]23)[C@@]2(C)C=CC(=O)C=C12 [Exemestane],Cholesterol-free media + simvastatin (0.04 μM),[1]; [8],1.215
same,Complete Media,[1]; [9],0.9053
same,Difference,[1]; [28],−0.31
same,Difference,[2]; [21],−0.01
same,Cholesterol-free,[2]; [10],1.056
same,Complete,[2]; [11],1.048
CCN1CC(CCN2CCOCC2)C(c2ccccc2)(c2ccccc2)C1=O (stereo not drawn) [Doxapram (hydrochloride hydrate)],Cholesterol-free media + simvastatin (0.04 μM),[1]; [3],0.894
same,Complete Media,[1]; [4],1.128
same,Difference,[1]; [14],0.23
same,Difference,[2]; [15],−1.01
same,Cholesterol-free,[2]; [16],2.003
same,Complete,[2]; [17],0.9924
CC(C)Oc1ccc(-c2nc(-c3cccc4c3CC[C@@H]4NCCO)no2)cc1C#N [Ozanimod],Cholesterol-free media + simvastatin (0.04 μM),[1]; [26],1.119
same,Complete Media,[1]; [27],0.9531
same,Difference,[1]; [28],−0.17
same,Difference,[2]; [21],−0.03
same,Cholesterol-free,[2]; [10],1.036
same,Complete,[2]; [11],1.004
CC(=O)O[C@H]1CC[C@@]2(C)C(=CC[C@@H]3[C@@H]2CC[C@]2(C)C(c4cccnc4)=CC[C@@H]32)C1 [Abiraterone acetate],Cholesterol-free media + simvastatin (0.04 μM),[1]; [8],1.209
same,Complete Media,[1]; [9],0.9
same,Difference,[1]; [28],−0.31
same,Cholesterol-free,[2]; [10],0.5232
same,Complete,[2]; [11],1.307
same,Difference,[2]; [24],0.78
Nc1cccc2c1CN(C1CCC(=O)NC1=O)C2=O (stereo not drawn) [Lenalidomide],Cholesterol-free media + simvastatin (0.04 μM),[1]; [18],1.008
same,Complete Media,[1]; [19],0.9958
same,Difference,[1]; [20],−0.01
same,Difference,[2]; [29],−0.16
same,Cholesterol-free,[2]; [13],1.032
same,Complete,[2]; [4],0.8739
C=C[C@H]1C[N@@]2CC[C@H]1C[C@@H]2[C@@H](O)c1ccnc2ccc(OC)cc12 [Quinidine hydrochloride monohydrate],Cholesterol-free media + simvastatin (0.04 μM),[1]; [18],1.46
same,Complete Media,[1]; [19],1.402
same,Difference,[1]; [20],−0.06
same,Difference,[2]; [21],0.01
same,Cholesterol-free,[2]; [10],1.211
same,Complete,[2]; [11],1.222
"NCCCC[C@H](NC(=O)[C@@H]1CCCN1C(=O)[C@@H]1CSSC[C@H](N)C(=O)N[C@@H](Cc2ccccc2)C(=O)N[C@@H](Cc2ccccc2)C(=O)N[C@@H](CCC(N)=O)C(=O)N[C@@H](CC(N)=O)C(=O)N1)C(=O)NCC(N)=O [Felypressin] (HELM PEPTIDE1{C.F.F.Q.N.C.P.K.G.[am]}$PEPTIDE1,PEPTIDE1,1:R3-6:R3$$$V2.0)",Cholesterol-free media + simvastatin (0.04 μM),[1],1.091
same,Complete Media,[1],0.9792
same,Difference,[1],−0.11
same,Cholesterol-free,[2],0.991
same,Complete,[2],0.8009
same,Difference,[2],−0.19
CC(C(=O)O)c1ccc2c(c1)CC(=O)c1ccccc1S2 (stereo not drawn) [Zaltoprofen],Cholesterol-free media + simvastatin (0.04 μM),[1]; [8],1.283
same,Complete Media,[1]; [9],0.7256
same,Difference,[1]; [28],−0.56
same,Difference,[2]; [29],−0.13
same,Cholesterol-free,[2]; [13],1.151
same,Complete,[2]; [4],1.025
